In paper PMC8041284, “Tunable Methacrylamides for Covalent Ligand Directed Release Chemistry” (Journal of the American Chemical Society, 2021):

Biological target: BTK (Homo sapiens, UniProt Q06187)
Test: biochemical
Settings: read-out: BTK inhibition (%)

BTK, sequence (Q06187 402-655 limits assumed): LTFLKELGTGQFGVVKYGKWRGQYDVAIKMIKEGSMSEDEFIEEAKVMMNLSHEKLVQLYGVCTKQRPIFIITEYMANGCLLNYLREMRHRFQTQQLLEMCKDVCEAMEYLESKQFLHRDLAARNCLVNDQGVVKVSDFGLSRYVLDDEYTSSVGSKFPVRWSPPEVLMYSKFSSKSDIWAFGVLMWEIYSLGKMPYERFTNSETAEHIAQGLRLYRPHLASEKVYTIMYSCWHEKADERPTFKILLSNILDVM

Compound | inhibition at 10 µM [%]
Cc1ccccc1-n1c(CF)nc2ccc(N)cc2c1=O [PCM-0214908] | 2.3
C[C@]12CC[C@H](O)C[C@@H]1CC[C@@H]1[C@@H]2CC[C@]2(C)C(=O)CC[C@@H]12 [PCM-0214741] | -21.8

Same assay, conditions: read-out: BTK inhibition (%), 0.75 uM BTK, […] probe 3l, 15 min preincubation

Compound | inhibition at 10 µM [%]
CC(C)NCC(O)COc1ccc(COCCOC(C)C)cc1 (stereo not drawn) [PCM-0064988] | -31.9
COC(=O)c1ccccc1O [PCM-0215919] | -10.9
COC(=O)C1=C(C#N)NC(C)=C(C(=O)OC(C)C)C1c1cccc([N+](=O)[O-])c1 (stereo not drawn) [PCM-0086361] | 14.8
C[C@]1(O)C[C@@H](O)[C@@H]2C=CO[C@@H](O[C@@H]3O[C@H](CO)[C@@H](O)[C@H](O)[C@H]3O)[C@@H]21 [PCM-0216407] | -5.4
COc1cc(-n2c(=S)[nH]c3ccccc3c2=O)c(Cl)cc1Cl [PCM-0095750] | 29.3
Cn1cc(-c2ccc3c(c2)CCN3C(=O)Cc2cccc(C(F)(F)F)c2)c2c(N)ncnc21 [PCM-0095812] | 40
Oc1ccc([C@H]2COc3cc(O)ccc3C2)cc1 [PCM-0095319] | -6.2
CCCSc1ccc2nc(NC(=O)OC)[nH]c2c1 [PCM-0085774] | -10.1
Cc1cc(NS(=O)(=O)c2ccc(N)cc2)nc(C)n1 [PCM-0216097] | 11
CS(=O)(=O)c1ccc(-c2cnc(NCc3ccco3)n3cnnc23)cc1 [PCM-0215813] | -6.9
CC(=O)Oc1cccc2ccccc12 [PCM-0215066] | -21
CN(C)C(=O)Nc1cccc(-c2ccc(N(C)C)cc2)c1 [PCM-0095740] | -3.1
CC(C)c1cccc(O)c(=O)c1 [PCM-0215059] | 3.9
CN(C(=O)CNC(=O)/C=C/c1cccc(Cl)c1)C1CCS(=O)(=O)CC1 [PCM-0215630] | -13.9
CC(C)N(CC[C@H](c1ccccc1)c1cc(CO)ccc1O)C(C)C [PCM-0095530] | 3.9
CC(C)Oc1ccc(-c2cnc3c(-c4ccnc5ccccc45)cnn3c2)cc1 [PCM-0215300] | -1.5
N=C(N)c1ccc(OCCCCCOc2ccc(C(=N)N)cc2)cc1 [PCM-0064878] | -4.7

Compound | inhibition at 10 µM [%]
COCCCOc1cc(C[C@@H](C[C@H](N)[C@@H](O)C[C@H](C(=O)NCC(C)(C)C(N)=O)C(C)C)C(C)C)ccc1OC [PCM-0214569] | 7
COc1cc2oc(-c3ccc(O)cc3)cc(=O)c2c(O)c1[C@@H]1O[C@H](CO)[C@@H](O)[C@H](O)[C@H]1O[C@@H]1O[C@H](CO)[C@@H](O)[C@H](O)[C@H]1O [PCM-0216416] | -15.4
CN(C)CCc1c[nH]c2ccc(Cn3cncn3)cc12 [PCM-0090241] | -3.1
CCCCC(=O)O[C@H]1CC[C@H]2[C@@H]3CCc4cc(O)ccc4[C@H]3CC[C@]12C [PCM-0214721] | 17.9
CCOC(=O)C1=C(C)NC(C)=C(C(=O)OCC)C1 [PCM-0216569] | 10.8
CC(C)=CCC[C@](C)(O[C@@H]1O[C@H](CO[C@@H]2OC[C@H](O)[C@H](O)[C@H]2O)[C@@H](O)[C@H](O)[C@H]1O)[C@H]1CC[C@]2(C)[C@@H]1[C@H](O)C[C@@H]1[C@@]3(C)CC[C@H](O[C@@H]4O[C@H](CO)[C@@H](O)[C@H](O)[C@H]4O[C@@H]4O[C@H](CO)[C@@H](O)[C@H](O)[C@H]4O)C(C)(C)[C@@H]3CC[C@]12C [PCM-0216375] | 7.7
C[C@@]1(CO)C[C@@H](O)C[C@@]2(C)[C@@H]3CC[C@](C)([C@@H](O)CO)C=C3CC[C@H]12 [PCM-0216530] | 20.8
O=C1CCc2ccc(OCCCCN3CCN(c4cccc(Cl)c4Cl)CC3)cc2N1 [PCM-0086268] | -10.9
OC[C@H]1NC[C@H](O)[C@@H](O)[C@@H]1O [PCM-0214950] | -9.3
CCC(C)C(=O)O[C@@H]1[C@@H](OC(C)=O)[C@]2(C)[C@H](C(C)=O)CC[C@@]23O[C@]32CC[C@H]3C[C@@H](O[C@H]4C[C@@H](OC)[C@H](O[C@@H]5O[C@H](C)[C@@H](O)[C@@H](OC)[C@H]5O)[C@@H](C)O4)CC[C@]3(C)[C@@H]12 (stereo partly drawn) [PCM-0216595] | -11.6
C[C@H]1O[C@@H](O[C@H]2CC[C@@]3(C)[C@@H](CC[C@]4(C)[C@@H]3C=CC3=C5CC(C)(C)CC[C@]5(CO)[C@@H](O)C[C@]34C)[C@]2(C)CO)[C@H](O[C@@H]2O[C@H](CO)[C@@H](O)[C@H](O)[C@H]2O)[C@@H](O[C@@H]2O[C@H](CO)[C@@H](O)[C@H](O)[C@H]2O)[C@H]1O [PCM-0216370] | 25.5
CC(C)CCN1c2nc(Nc3cc(F)c(O)c(F)c3)ncc2N(C)C(=O)C1C (stereo not drawn) [PCM-0095469] | 48.3
C[C@H](NC(=O)Cc1cc(F)cc(F)c1)C(=O)N[C@@H]1C(=O)N(C)c2ccccc2-c2ccccc21 [PCM-0095414] | 4.8
CC1(C)CC[C@]2(C(=O)O)CC[C@]3(C)C(=CC[C@@H]4[C@@]5(C)CC[C@H](O[C@@H]6O[C@H](C(=O)O)[C@@H](O)[C@H](O[C@@H]7OC[C@@H](O)[C@H](O)[C@H]7O)[C@H]6O)C(C)(C)[C@@H]5CC[C@]43C)[C@@H]2C1 [PCM-0216434] | 3.9
O=C(NCCN1CCOCC1)c1ccc(Cl)cc1 [PCM-0064796] | -3.9
CC(=O)Nc1nc2c(Oc3cc(-c4ccc(C(F)(F)F)cc4)ncn3)cccc2s1 [PCM-0095587] | 10.8
O=C(NC(NC(=S)Nc1ccc(F)c([N+](=O)[O-])c1)C(Cl)(Cl)Cl)C(c1ccccc1)c1ccccc1 (stereo not drawn) [PCM-0215199] | 106
